# PMC6562471 (Cancers, 2019)
# Experiments:
# NCI-H1975 cells [1] = assay: Colony formation, NCI-H1975; format: cell-based, human; settings: NCI-H1975, 72 h treatment then 10 days culture
# Text: (§1) The cells were then washed once with PBS and continue to culture with full-growth medium for 10 days, change the culture medium to fresh ones every three days. Cells were stained with 0.1% crystal violet after fixing with 100% methanol.
# [2] = Cell viability (SRB assay), normal MRC-5; format: cell-based; settings: human, normal cell line
# Experimental: (§4) Cell viability assay was performed using SRB assay as described previously [22].
# A549 xenograft = assay: A549 nude mouse xenograft model; format: in vivo
# Experimental: (§2) All animal experiments were followed the guidelines approved by the Seoul National University Institutional Animal Care and Use Committee (IACUC permission number SNU-170103-2-1). […]. Drug treatment started when their tumor volumes reached to 80–100 mm^3. […]. Body weight and tumor size were measured three times per week. The tumor size was calculated according to the formula V = 0.5 × length × width^2.
# NCI-H1975 xenograft = assay: NCI-H1975 nude mouse xenograft model; format: in vivo
# Experimental: as §2
# A549 cells [3] = assay: Colony formation, A549; format: cell-based, human; settings: A549, 72 h treatment then 10 days culture
# Text: as §1
# c-Met = biological target: T1, c-Met (Homo sapiens, UniProt P08581); assay: c-Met kinase activity assay (Met Kinase Assay/Inhibitor Screening Kit); format: biochemical; settings: cell-free kinase activity
# T1 construct: purchased Abnova KA0055
# T1 sequence (P08581 25-1390): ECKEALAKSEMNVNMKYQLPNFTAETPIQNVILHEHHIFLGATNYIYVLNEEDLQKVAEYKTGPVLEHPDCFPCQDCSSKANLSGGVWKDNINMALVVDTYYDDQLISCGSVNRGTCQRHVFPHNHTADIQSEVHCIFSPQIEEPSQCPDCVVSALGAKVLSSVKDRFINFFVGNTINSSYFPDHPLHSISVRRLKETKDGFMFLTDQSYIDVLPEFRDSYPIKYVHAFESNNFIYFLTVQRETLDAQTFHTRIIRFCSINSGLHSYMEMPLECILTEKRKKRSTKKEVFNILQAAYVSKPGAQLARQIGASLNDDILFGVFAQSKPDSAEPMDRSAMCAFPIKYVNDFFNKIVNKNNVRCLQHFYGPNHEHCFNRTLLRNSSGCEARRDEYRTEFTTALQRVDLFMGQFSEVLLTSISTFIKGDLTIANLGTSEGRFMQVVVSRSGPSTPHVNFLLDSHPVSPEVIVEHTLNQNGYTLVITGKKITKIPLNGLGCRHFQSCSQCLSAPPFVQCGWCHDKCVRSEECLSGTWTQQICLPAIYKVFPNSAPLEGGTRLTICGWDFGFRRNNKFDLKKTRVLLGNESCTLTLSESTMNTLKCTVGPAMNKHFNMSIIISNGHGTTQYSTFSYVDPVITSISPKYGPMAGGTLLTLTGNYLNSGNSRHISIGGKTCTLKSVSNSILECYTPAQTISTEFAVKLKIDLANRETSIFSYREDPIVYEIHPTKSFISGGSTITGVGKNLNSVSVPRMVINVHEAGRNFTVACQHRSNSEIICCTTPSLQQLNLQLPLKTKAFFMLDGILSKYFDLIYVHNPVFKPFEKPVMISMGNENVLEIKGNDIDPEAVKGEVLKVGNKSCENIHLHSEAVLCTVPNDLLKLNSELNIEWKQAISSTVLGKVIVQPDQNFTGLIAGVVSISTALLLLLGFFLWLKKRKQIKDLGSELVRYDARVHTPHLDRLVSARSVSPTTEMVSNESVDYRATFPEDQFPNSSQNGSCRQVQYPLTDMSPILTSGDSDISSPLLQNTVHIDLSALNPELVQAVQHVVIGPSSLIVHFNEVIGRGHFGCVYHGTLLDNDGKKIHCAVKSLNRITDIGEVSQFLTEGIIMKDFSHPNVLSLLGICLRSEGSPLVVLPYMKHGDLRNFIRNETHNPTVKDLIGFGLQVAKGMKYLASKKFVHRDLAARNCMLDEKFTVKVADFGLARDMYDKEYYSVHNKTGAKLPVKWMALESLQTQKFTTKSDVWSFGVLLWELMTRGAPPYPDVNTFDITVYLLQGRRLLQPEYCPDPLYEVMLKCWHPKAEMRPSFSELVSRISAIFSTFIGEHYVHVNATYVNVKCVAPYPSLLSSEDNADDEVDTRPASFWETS
# [4] = Pharmacokinetic study in male ICR mice; format: in vivo; settings: mouse, plasma, po 10 mg/kg
# Experimental: The male ICR mice (25–30 g, 7–8 weeks of age) were purchased from Koatech Co. (Pyeontak, Kyonggi-do, Korea). Animals were fed with free access to standard chow diet and water. All animal use and care followed the guidelines approved by the Institutional Animal Care and Use Committee of Flow Sciences.INC. (Approval No.: NDDC PK 2018 076 01-DFX117-(4364)). Animals were acclimatized for 1 week at of 23–25 °C temperature, 40–70% relative humidity and 12 h light/12 h dark cycle before study. […] Approximately 80 µL of blood samples were collected into BD Microtainer plasma separator tubes at times 0.25, 0.5, 1.0, 2.0, 4.0, 6.0 and 8.0 h through the saphenous vein over […] post dosing. Blood samples were centrifuged at 15,000 rpm for 5 min and stored in a freezer until analysis. Protein precipitation was conducted on 15 µL of plasma samples using three volumes of acetonitrile containing carbamazepine as an internal analytical standard. After centrifugation, the supernatant was analyzed on a Nexera XR system (Shimadzu, Japan) system coupled with TSQ vantage triple quadruple (Thermo Fisher Scientific, Waltham, MA, USA) system. Chromatographic separation was performed on a Kinetex XB-C18 column (2.1 × 100 mm, 2.6 μm, particle size; Phenomenex, CA, USA) running a linear gradient of solvent A (0.1% formic acid in deionized water) and B (0.1% formic acid in acetonitrile). Detection of the analyte ions was performed in a positive MRM mode, monitoring the following precursor >product ion transitions: m/z 573.1 > 417.8. Analytical data were processed using MassHunter B04.01 (Agilent Korea, Seoul, Korea). Pharmacokinetic parameters were calculated via non-compartmental analysis of the plasma concentration-time profiles using PK Solver.
# A549 cells [5] = assay: Cell viability (SRB assay), A549; format: cell-based, human
# Experimental: as §4
# A549 cells [6] = assay: Annexin V-FITC/PI apoptosis assay, A549; format: cell-based, human; settings: A549, 0.4 μM, 48 h; control 6.09%
# Experimental: (§3) Annexin FITC/PI assay was performed as described previously. Cell apoptosis was evaluated using Annexin V FITC/PI apoptosis detection kit (BD Biosciences, San Jose, CA, USA) according to the manufacturer’s instruction. […] Wash the cells with cold PBS buffer before staining with 5 μL of Annexin V-FITC and 5 μL of propidium iodide in the 500 μL 1× binding buffer. Finally, the stained cells were incubated for 15 min at room temperature in the dark before analyzing with FACS Calibur flow cytometer, (Becton Dickinson, San Jose, CA, USA).
# NCI-H1975 cells [7] = assay: Cell viability (SRB assay), NCI-H1975; format: cell-based, human
# Experimental: as §4
# phospho-Met = assay: Phospho-receptor tyrosine kinase array, A549; format: cell-based, human; settings: A549 cells, 0.2 μM
# Experimental: Phosphorylated RTKs were measured with the Human Phospho-RTK Array Kit (ARY001B) from R&D Systems (Minneapolis, MN, USA) according to the manufacturer’s instructions.
# NCI-H1975 cells [8] = assay: Annexin V-FITC/PI apoptosis assay, NCI-H1975; format: cell-based, human; settings: NCI-H1975, 0.4 μM, 48 h; control 4.15%
# Experimental: as §3
structure (smiles),measurement,setting,value
"COc1ncc(-c2ccc3ncc(C(=O)NCCN4CCOCC4)n3c2)cc1NS(=O)(=O)c1ccc(F)cc1F [DFX117, 6-(5-(2,4-difluorophenylsulfonamido)-6-methoxypyridin-3-yl)-N-(2-morpholinoethyl) imidazo[1,2-a]pyridine-3-carboxamide]",Colony formation,NCI-H1975 cells [1],significantly inhibited
same,IC50,[2],2890 nM
same,Overt toxicity or body weight change,"A549 xenograft; A549 xenograft, 5, 10 or 20 mg/kg orally daily for 23 days",No overt toxicity or body weight change was observed
same,Excised tumor weights on the termination day,"A549 xenograft; A549 xenograft, oral daily for 23 days",significantly inhibited
same,Overt toxicity or body weight change,NCI-H1975 xenograft; 10 or 20 mg/kg orally daily for 23 days,No overt toxicity or body weight change was observed
same,Tumor weights,NCI-H1975 xenograft; oral daily for 23 days,significantly inhibited
same,Colony formation,A549 cells [3],significantly inhibited
same,IC50,c-Met,17.1 nM
same,AUC,[4],3340 ng·h/mL
same,Cmax,[4],4500 ng/mL
same,Tmax,[4],18 min
same,half-life,[4],126 min
same,MRT inf,[4]; read-out: MRTinf_obs,2.2 h
same,Growth inhibitory activity compared with HS-173,A549 cells [5],superior to that of HS-173
same,Population of apoptotic cells (Annexin V positive),A549 cells [6],26.84%
same,Growth inhibitory activity compared with HS-173,NCI-H1975 cells [7],superior to that of HS-173
same,Phospho-Met level (phospho-RTK array),phospho-Met,markedly suppressed
same,Population of apoptotic cells (Annexin V positive),NCI-H1975 cells [8],32.75%
